Reference: the METLIN SMRT retention time set (Domingo-Almenara et al. 2019)

test: gradient 5% acetonitrile 3 min, to 50% in 2 min, to 85% in 15 min, held 3 min, 100 µL/min; conditions: column: Zorbax Extend-C18 2.1 x 50 mm; eluents: water / acetonitrile, 0.1% formic acid
In short: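 Using water and acetonitrile that each contained 0.1% formic acid, mixtures of ~100 pure standards were separated at 100 μL/min on a Zorbax Extend-C18 column (2.1 × 50 mm, 1.8 μm). The HPLC fed a quadrupole time-of-flight mass spectrometer working in positive and negative ionization mode, with dead and dwell volumes of 40 μL and 900 μL. Data were acquired over 3 months. Retention time was read from computationally picked adduct peaks after manual inspection of each.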

Row | Structure (SMILES) | RP-LC retention time
1 | Cc1cnc(C)n1CC1CCN(S(=O)(=O)c2ccc(C#N)cc2)C1 (centres undefined) | 628 s
2 | Cc1ccc(S(=O)(=O)N2CCCC(CCC(=O)O)C2)cc1 (centres undefined) | 812 s
3 | CSc1cccc(NC(=O)Cc2csc(NC(=O)C3CCC(=O)N3)n2)c1 (centres undefined) | 627 s
4 | COc1cccc(N2C(=O)C3N=NN(c4ccc(C)c(F)c4)C3C2=O)c1 (centres undefined) | 1110 s
5 | Cc1ccc(S(=O)(=O)N2CCCC(c3nnc(COc4ccccc4)o3)C2)c(C)c1 (centres undefined) | 984 s
6 | COc1ccc(-c2nc3cnccn3c2Nc2ccc(C(=O)NCCN3CCOCC3)cc2)cc1 | 584 s
7 | O=C(CCc1nc2ccccc2s1)NCC12CCCC=C1NC(=O)CC2 (centres undefined) | 695 s
8 | Nc1nc(-c2ccccc2)nn1C(=O)c1ccc(F)cc1 | 974 s
9 | CCOc1ccc(NC(=O)Cn2c(=O)c(CCC(=O)NCC(C)C)nc3ccccc32)cc1 | 824 s
10 | COc1ccc(CC(=O)N2CCC3(CC2)NC(=O)c2ccc(F)cc2N3C)cc1 | 759 s
11 | Cc1ccc(CNC(=O)C2(C)Cn3nc(C(=O)NCCN4CCCC4)cc3C(=O)N2C)cc1 (centres undefined) | 608 s
12 | Cc1cccc(OCc2nc(-c3ccc4c(c3)nnn4CCC(=O)N3CCOCC3)no2)c1 | 863 s
13 | CC1(C)Cc2cccc(OCC(=O)NCC3CN(c4ccccc4)C(=O)O3)c2O1 (centres undefined) | 796 s
14 | Cc1cc(C)n2c(Nc3ccc(C(C)C)cc3)c(-c3ccc(Cl)cc3)nc2n1 | 985 s
15 | O=C(Nc1cccn2nc(C3CC3)nc12)c1cccs1 | 788 s
16 | CN(C)C(=O)CN1C(=O)COc2ccc(C(=O)N3CCN(c4ccccc4)CC3)cc21 | 702 s
17 | CCN1C(=O)CCc2cc(NC(=O)Cc3ccc(F)cc3)ccc21 | 780 s
18 | Cc1ccc(-c2ccc(N3CCCC(C(=O)NCCc4cccs4)C3)nn2)cc1C (centres undefined) | 808 s

Row | Structure (SMILES) | RP-LC retention time
19 | CC1(C)C(=O)N(CCN2CCC(C(=O)c3ccc(F)cc3)CC2)c2ccccc21 | 755 s
20 | CCn1c(=O)c(N2CCC(C(=O)NCCc3c[nH]c4ccc(Cl)cc34)CC2)nc2cccnc21 | 993 s
21 | Cc1ccc(CNC(=O)C2CCN(S(=O)(=O)c3cc(C(=O)N4CCOCC4)cs3)CC2)cc1 | 765 s
22 | O=C(NCc1cc(F)cc(F)c1)C1CCc2nc(N3CCCCC3)ncc2C1 (centres undefined) | 778 s
23 | COc1cc2c(cc1OC)C(C(=O)NCCCN1CCCC1)C(c1cccs1)N(C)C2=O (centres undefined) | 606 s
24 | Cc1cccc(CN2CCCN(CC(=O)NC(C)CCc3ccccc3)S2(=O)=O)c1 (centres undefined) | 1080 s
25 | CN1CCN(Cc2nc3cc(NC(=O)C4CCCCC4)ccc3n2C)CC1 | 574 s
26 | Cc1noc(-c2ccc(NC(=O)c3cccs3)cc2)n1 | 776 s
27 | CNC(=O)c1cc2c(=O)n(CC(C)C)c3ccccc3n2n1 | 793 s
28 | O=C(Cc1ccsc1)NCC1CCCCC(=O)N1 (centres undefined) | 619 s
29 | CCC(C(=O)Nc1c(-c2ccc(F)cc2)nc2cc(C)ccn12)c1ccccc1 (centres undefined) | 745 s
30 | COc1cc2c(cc1OC)[C@@H](C(=O)Nc1ccc(F)cc1)[C@@H]1CCCCN1C2=O | 773 s
31 | CCOc1ccc(C(=O)N2CCN(c3cc(-c4ccc(Cl)cc4)[nH]n3)CC2)cc1OCC | 916 s
32 | COc1ccc2cc(C(=O)N3CCC(CC(=O)NCC4CCCO4)CC3)[nH]c2c1 (centres undefined) | 681 s
33 | CCOc1ccc(CNC(=O)C2CCCN(c3cc(=O)n(C)c(=O)n3CC)C2)cc1OCC (centres undefined) | 791 s
34 | O=C(CCNc1c(-c2ccccc2)nc2cnccn12)N1CCC(N2CCCCC2)CC1 | 552 s
35 | CC(C)n1c(N2CCN(C(=O)c3ccc4nccnc4c3)CC2)cc(=O)n(C(C)C)c1=O | 701 s
36 | CCOC(=O)Cn1c(C2CC(=O)N(Cc3ccccc3)C2)nc2ccccc21 (centres undefined) | 749 s

Further lines, results first:

Row | RP-LC retention time | Structure (SMILES)
37 | 812 s | Cc1cc(F)ccc1NC(=O)C1CCCN1S(=O)(=O)c1cc2c(cc1C)NC(=O)C(C)O2 (centres undefined)
38 | 536 s | O=C(NCCc1ccccc1)Nc1cnc2c(c1)CCC2
39 | 686 s | Cc1ccc(-c2cc3c(=O)n(Cc4noc(CN5CCCC5)n4)ccn3n2)c(C)c1
40 | 931 s | CCS(=O)(=O)Nc1ccc(-c2noc(COc3ccc(F)cc3)n2)cc1
41 | 720 s | Cc1nn2c(N3CCN(c4ccccn4)CC3)c3c(nc2c1-c1ccccc1)CCC3
42 | 610 s | O=C(NCc1ccc(F)cc1)NC1CCCN(c2cc(-c3ccncc3)[nH]n2)C1 (centres undefined)
43 | 1100 s | COc1ccccc1-c1noc(Cn2c(=O)n(Cc3ccc(C)cc3)c(=O)c3sccc32)n1
44 | 1020 s | CCc1nc(-c2csc(S(=O)(=O)N3CCC(C(=O)N4CCc5ccccc5C4)CC3)c2)no1
45 | 645 s | Cc1noc(CN2CCN(C3CCN(Cc4ccc(C(F)(F)F)cc4)C3)C2=O)n1 (centres undefined)
46 | 574 s | CNC(=O)N1CCCC(Cn2cnc3cccnc32)C1 (centres undefined)
47 | 758 s | CN(C)S(=O)(=O)N1CCC(c2nnc(C(F)(F)F)o2)CC1
48 | 848 s | O=C(OCc1nc2ccccc2s1)c1ccc([N+](=O)[O-])o1
49 | 963 s | CCc1nc(-c2csc(S(=O)(=O)N3CCC(C(=O)Nc4ccc(F)cc4C)CC3)c2)no1
50 | 632 s | CCCn1nc(CNC(=O)CNC(C)=O)c2ccccc21
51 | 900 s | CS(=O)(=O)c1ccc(Sc2nc3ccccc3s2)c([N+](=O)[O-])c1
52 | 704 s | COc1cccc(CN2C[C@@H]3C(=O)N(Cc4ccc5c(c4)OCO5)C(=O)[C@@H]3C2)c1OC
53 | 694 s | COc1cc(OC)cc(C(=O)N2CCN=C2N2CCC(C)CC2)c1
54 | 908 s | Cc1cccc(C2CCCN2C(=O)c2c(Br)cnn2C)c1 (centres undefined)
55 | 593 s | Cc1nn(-c2ccc(C(=O)N3CCN(C)CC3)cc2)c2c1C(=O)CC(C)(C)C2
56 | 780 s | CCCn1c(=O)sc2cc(S(=O)(=O)N3CCC(C(=O)Nc4ccccn4)CC3)ccc21
57 | 658 s | CCOc1ccc(NC(=O)Cn2c(C)nc3cc4c(cc32)OCCO4)cc1
58 | 620 s | O=C(c1ccc(F)c(Cl)c1)N1CCN(c2cc(-c3cccnc3)[nH]n2)CC1
59 | 726 s | CCOc1cc(=O)n2c(c1C(=O)Nc1ccc(F)cc1F)CCCC2
60 | 944 s | O/N=C(\CC(O)(C(F)(F)F)C(F)(F)F)c1cccc(Cl)c1
61 | 600 s | CCOC(=O)C1CCN(Cc2nc(-c3ccc(N4CCCCCC4)nc3)no2)CC1
62 | 1080 s | Cc1noc(C)c1S(=O)(=O)N1CCC(CCOc2ccccc2)C1 (centres undefined)
63 | 670 s | COc1cc(OC)c(NC(=O)N2CCC(n3cnc4cccnc43)CC2)cc1Cl

Row | RP-LC retention time | Structure (SMILES)
64 | 1030 s | COc1ccccc1OCCC1CCN(S(=O)(=O)Cc2ccccc2F)C1 (centres undefined)
65 | 764 s | COc1cc2oc(=O)cc(C)c2cc1[N+](=O)[O-]
66 | 695 s | Cc1cccc(C)c1-n1ccn(Cc2nc(-c3ccccn3)no2)c(=O)c1=O
67 | 904 s | CC(C)c1ccc(OCC(=O)Nc2nnc(C3CC(=O)N(c4ccc(F)cc4)C3)o2)cc1 (centres undefined)
68 | 994 s | COc1cc(NC(=O)c2ccccn2)ccc1Cl
69 | 572 s | CCOC(=O)N1CCN(C(=O)c2cn(C)nc2C)CC1
70 | 978 s | COc1cc(OC)cc(-c2nnc(Cc3nc(-c4ccc5c(c4)OCO5)no3)o2)c1
71 | 597 s | O=C(Cn1c(=O)oc2ccccc21)N1CCC2(CC1)NCCc1c2[nH]c2ccccc12
72 | 647 s | COc1cc(CCC(=O)N2CCN(c3cc(=O)n(C)c(=O)n3C)CC2)cc(OC)c1OC
73 | 694 s | Cc1ccc(CNC(=O)CCNc2c(-c3ccc(F)cc3)nc3cnccn23)o1
74 | 647 s | COCCCNC(=O)C1CCCN(c2ccc(-c3ccc(C)c(C)c3)nn2)C1 (centres undefined)
75 | 673 s | CCc1ccc(OCC(=O)OCCNC(=O)c2ccncc2)cc1
76 | 1070 s | COC(=O)c1ccccc1Nc1c(-c2ccc(SC)cc2)nc2cnccn12
77 | 790 s | CC(=O)Nc1ccc(-n2cnc(C(=O)N3CCN(c4cc(C)ccc4C)CC3)c2)nc1
78 | 772 s | Cc1ccc2c(C)nc(NC3=NCN(Cc4ccccc4)CN3)nc2c1
79 | 1370 s | O=C(Nc1cnc(-c2cccc(Cl)c2)nc1)c1nccc2ccccc12
80 | 642 s | CC1=C(c2ccc(Cl)cc2)S(=O)(=O)N=C1N1CCC(C(=O)NCCN(C)C)CC1
81 | 1010 s | Cc1ccc(CNC(=O)C2(C)CCCN(C(=O)Nc3ccc(Cl)cc3)C2)cc1 (centres undefined)
82 | 649 s | CC1CCC2(CC1)N=C(N1CCN(c3ncccn3)CC1)NC(=O)C2C#N (centres undefined)
83 | 767 s | CCOC(=O)c1sc2cccc(F)c2c1S(=O)(=O)N1CCN(c2ccccn2)CC1
84 | 969 s | COc1cc(Cl)c(NC(=O)C(=O)c2ccc[nH]2)c(OC)c1
85 | 916 s | COc1ccc2c(c1)C1CC(C)(O2)N(C)C(=O)C1S(=O)(=O)c1ccccc1 (centres undefined)
86 | 754 s | O=C(c1cnn2cccnc12)N1CCCC1c1cccc(F)c1 (centres undefined)
87 | 998 s | COc1ccc(OC)c(C(C)NC(=O)C2CCCN(c3nccnc3Oc3ccccc3)C2)c1 (centres undefined)
88 | 680 s | CC1CCCN(c2ccc(-c3noc(CN4CCC5(CC4)OCCO5)n3)cn2)C1 (centres undefined)
89 | 1070 s | COc1cc(Cn2nc(C)c3cnn(C(C)(C)C)c3c2=O)cc(OC)c1
